According to patent publication US10815222B2, “Compounds for use in the treatment of kinetoplastid infection” (C.N.C.C.S. S.c.a.r.l. COLLEZIONE NAZIONALE DEI COMPOSTI …, priority 2016, dated 2020):
Read-outs that look alike come from different tables or passages of the source.

System: Bloodstream form of Trypanosoma brucei, strain Lister 427
Experiment: Trypanosoma brucei growth inhibition assay (CellTiter-Glo, 24 h)
Type: cell-based
Details: Trypanosoma brucei, read-out: T. Brucei GI EC50
Method in brief: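 Bloodstream-form T. brucei Lister 427, 1500 parasites per well in supplemented IMDM with 10% FBS, were exposed to compound (DMSO ≤0.25% final) for 24 h at 37 °C. Viability was measured by CellTiter-Glo luminescence.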

[1] = T. Brucei Growth Inibition Assay, class symbols

SMILES	EC50 [1] [nM]	EC50 [nM]
COc1nc2ccccc2cc1-c1cnc([C@@H]2CN(C3CCN(C(C)=O)CC3)CCN2C(=O)Cn2c(C(F)(F)F)nc3ccccc32)[nH]1 [(S)-1-(4-(1-acetylpiperidin-4-yl)-2-(5-(2-methoxyquinolin-3-yl)-1H-imidazol-2-yl)piperazin-1-yl)-2-(2-(trifluoromethyl)-1H-benzo[d]imidazol-1-yl)ethan-1-one]	< 100	
COc1ccc2nc(C(F)(F)F)n(CC(=O)N3CCN(CCn4cccn4)C[C@H]3c3ncc(-c4cc5ccccc5nc4OC)[nH]3)c2c1 [(S)-1-(4-(2-(1H-pyrazol-1-yl)ethyl)-2-(5-(2-methoxyquinolin-3-yl)-1H-imidazol-2-yl)piperazin-1-yl)-2-(6-methoxy-2-(trifluoromethyl)-1H-benzo[d]imidazol-1-yl)ethan-1-one]	< 100	
COc1ccc2nc(C(F)(F)F)n(CC(=O)N3CCN(CCc4cnoc4)C[C@H]3c3ncc(-c4cc5ccccc5nc4OC)[nH]3)c2c1 [(S)-1-(4-(2-(isoxazol-4-yl)ethyl)-2-(5-(2-methoxyquinolin-3-yl)-1H-imidazol-2-yl)piperazin-1-yl)-2-(6-methoxy-2-(trifluoromethyl)-1H-benzo[d]imidazol-1-yl)ethan-1-one]	< 100	
COc1nc2ccccc2cc1-c1cnc([C@@H]2CN(C3CCC(F)(F)CC3)CCN2C(=O)Cn2c(C(F)(F)F)nc3ccccc32)[nH]1 [(S)-1-(4-(4,4-difluorocyclohexyl)-2-(5-(2-methoxyquinolin-3-yl)-1H-imidazol-2-yl)piperazin-1-yl)-2-(2-(trifluoromethyl)-1H-benzo[d]imidazol-1-yl)ethan-1-one]	< 100	
COc1nc2ccccc2cc1-c1cnc([C@@H]2CN(Cc3cncc(F)c3)CCN2C(=O)Cn2c(C(F)(F)F)nc3ccccc32)[nH]1 [(S)-1-(4-((5-fluoropyridin-3-yl)methyl)-2-(5-(2-methoxyquinolin-3-yl)-1H-imidazol-2-yl)piperazin-1-yl)-2-(2-(trifluoromethyl)-1H-benzo[d]imidazol-1-yl)ethan-1-one]	< 100	
COc1nc2ccccc2cc1-c1cnc([C@@H]2CN(Cc3ccon3)CCN2C(=O)Cn2c(C(F)(F)F)nc3ccccc32)[nH]1 [(S)-1-(4-(isoxazol-3-ylmethyl)-2-(5-(2-methoxyquinolin-3-yl)-1H-imidazol-2-yl)piperazin-1-yl)-2-(2-(trifluoromethyl)-1H-benzo[d]imidazol-1-yl)ethan-1-one]	< 100	
COc1nc2ccccc2cc1-c1cnc([C@@H]2CN(Cc3ccccc3)CCN2C(=O)Cn2c(C(F)(F)F)nc3ccccc32)[nH]1 [(S)-1-(4-benzyl-2-(5-(2-methoxyquinolin-3-yl)-1H-imidazol-2-yl)piperazin-1-yl)-2-(2-(trifluoromethyl)-1H-benzo[d]imidazol-1-yl)ethan-1-one]	< 100	
COc1ccc2nc(C(F)(F)F)n(CC(=O)N3CCN(CCc4csc(C)n4)C[C@H]3c3ncc(-c4cc5ccccc5nc4OC)[nH]3)c2c1 [(S)-2-(6-methoxy-2-(trifluoromethyl)-1H-benzo[d]imidazol-1-yl)-1-(2-(5-(2-methoxyquinolin-3-yl)-1H-imidazol-2-yl)-4-(2-(2-methylthiazol-4-yl)ethyl)piperazin-1-yl)ethan-1-one]	< 100	
COc1ccc2nc(C(F)(F)F)n(CC(=O)N3CCN(CCc4ccccn4)C[C@H]3c3ncc(-c4cc5ccccc5nc4OC)[nH]3)c2c1 [(S)-2-(6-methoxy-2-(trifluoromethyl)-1H-benzo[d]imidazol-1-yl)-1-(2-(5-(2-methoxyquinolin-3-yl)-1H-imidazol-2-yl)-4-(2-(pyridin-2-yl)ethyl)piperazin-1-yl)ethan-1-one]	< 100	
COc1ccc2nc(C(F)(F)F)n(CC(=O)N3CCN(Cc4ncnn4C)C[C@H]3c3ncc(-c4cc5ccccc5nc4OC)[nH]3)c2c1 [(S)-2-(6-methoxy-2-(trifluoromethyl)-1H-benzo[d]imidazol-1-yl)-1-(2-(5-(2-methoxyquinolin-3-yl)-1H-imidazol-2-yl)-4-((1-methyl-1H-1,2,4-triazol-5-yl)methyl)piperazin-1-yl)ethan-1-one]	100 to 500	
COc1ccc2nc(C(F)(F)F)n(CC(=O)N3CCN(Cc4ccn(C)n4)C[C@H]3c3ncc(-c4cc5ccccc5nc4OC)[nH]3)c2c1 [(S)-2-(6-methoxy-2-(trifluoromethyl)-1H-benzo[d]imidazol-1-yl)-1-(2-(5-(2-methoxyquinolin-3-yl)-1H-imidazol-2-yl)-4-((1-methyl-1H-pyrazol-3-yl)methyl)piperazin-1-yl)ethan-1-one]	< 100	
COc1ccc2nc(C(F)(F)F)n(CC(=O)N3CCN(Cc4cocn4)C[C@H]3c3ncc(-c4cc5ccccc5nc4OC)[nH]3)c2c1 [(S)-2-(6-methoxy-2-(trifluoromethyl)-1H-benzo[d]imidazol-1-yl)-1-(2-(5-(2-methoxyquinolin-3-yl)-1H-imidazol-2-yl)-4-(oxazol-4-ylmethyl)piperazin-1-yl)ethan-1-one]	< 100	
COc1ccc2nc(C(F)(F)F)n(CC(=O)N3CCN(Cc4cnccn4)C[C@H]3c3ncc(-c4cc5ccccc5nc4OC)[nH]3)c2c1 [(S)-2-(6-methoxy-2-(trifluoromethyl)-1H-benzo[d]imidazol-1-yl)-1-(2-(5-(2-methoxyquinolin-3-yl)-1H-imidazol-2-yl)-4-(pyrazin-2-ylmethyl)piperazin-1-yl)ethan-1-one]	< 100	
COc1ccc2nc(C(F)(F)F)n(CC(=O)N3CCN(Cc4ccnnc4)C[C@H]3c3ncc(-c4cc5ccccc5nc4OC)[nH]3)c2c1 [(S)-2-(6-methoxy-2-(trifluoromethyl)-1H-benzo[d]imidazol-1-yl)-1-(2-(5-(2-methoxyquinolin-3-yl)-1H-imidazol-2-yl)-4-(pyridazin-4-ylmethyl)piperazin-1-yl)ethan-1-one]	< 100	
COc1ccc2nc(C(F)(F)F)n(CC(=O)N3CCN(Cc4nccs4)C[C@H]3c3ncc(-c4cc5ccccc5nc4OC)[nH]3)c2c1 [(S)-2-(6-methoxy-2-(trifluoromethyl)-1H-benzo[d]imidazol-1-yl)-1-(2-(5-(2-methoxyquinolin-3-yl)-1H-imidazol-2-yl)-4-(thiazol-2-ylmethyl)piperazin-1-yl)ethan-1-one]	< 100	
COc1ccc2nc(C(F)(F)F)n(CC(=O)N3CCN(Cc4cscn4)C[C@H]3c3ncc(-c4cc5ccccc5nc4OC)[nH]3)c2c1 [(S)-2-(6-methoxy-2-(trifluoromethyl)-1H-benzo[d]imidazol-1-yl)-1-(2-(5-(2-methoxyquinolin-3-yl)-1H-imidazol-2-yl)-4-(thiazol-4-ylmethyl)piperazin-1-yl)ethan-1-one]	< 100	
COc1ccc2nc(C(F)(F)F)n(CC(=O)N3CCN(Cc4nccs4)C[C@H]3c3nnc(-c4cc5ccccc5nc4OC)[nH]3)c2c1 [(S)-2-(6-methoxy-2-(trifluoromethyl)-1H-benzo[d]imidazol-1-yl)-1-(2-(5-(2-methoxyquinolin-3-yl)-4H-1,2,4-triazol-3-yl)-4-(thiazol-2-ylmethyl)piperazin-1-yl)ethan-1-one]	< 100	
COc1ccc2nc(C(F)(F)F)n(CC(=O)N3CCN(Cc4ccn(C)n4)CC[C@H]3c3ncc(-c4cc5ccccc5nc4OC)[nH]3)c2c1 [(S)-2-(6-methoxy-2-(trifluoromethyl)-1H-benzo[d]imidazol-1-yl)-1-(7-(5-(2-methoxyquinolin-3-yl)-1H-imidazol-2-yl)-4-((1-methyl-1H-pyrazol-3-yl)methyl)-1,4-diazepan-1-yl)ethan-1-one]	< 100	
COc1ccc2nc(C)n(CC(=O)N3CCN(Cc4ccn(C)n4)C[C@H]3c3ncc(-c4cc5ccccc5nc4OC)[nH]3)c2c1 [(S)-2-(6-methoxy-2-methyl-1H-benzo[d]imidazol-1-yl)-1-(2-(5-(2-methoxyquinolin-3-yl)-1H-imidazol-2-yl)-4-((1-methyl-1H-pyrazol-3-yl)methyl)piperazin-1-yl)ethan-1-one]	< 100	
COc1ccc2nc(C)n(CC(=O)N3CCN(Cc4nncn4C)C[C@H]3c3ncc(-c4cc5ccccc5nc4OC)[nH]3)c2c1 [(S)-2-(6-methoxy-2-methyl-1H-benzo[d]imidazol-1-yl)-1-(2-(5-(2-methoxyquinolin-3-yl)-1H-imidazol-2-yl)-4-((4-methyl-4H-1,2,4-triazol-3-yl)methyl)piperazin-1-yl)ethan-1-one]	510 to 1000	
COc1ccc2nc(C)n(CC(=O)N3CCN(Cc4cocn4)C[C@H]3c3ncc(-c4cc5ccccc5nc4OC)[nH]3)c2c1 [(S)-2-(6-methoxy-2-methyl-1H-benzo[d]imidazol-1-yl)-1-(2-(5-(2-methoxyquinolin-3-yl)-1H-imidazol-2-yl)-4-(oxazol-4-ylmethyl)piperazin-1-yl)ethan-1-one]	< 100	
COc1ccc2nc(C)n(CC(=O)N3CCN(CC4COC4)C[C@H]3c3ncc(-c4cc5ccccc5nc4OC)[nH]3)c2c1 [(S)-2-(6-methoxy-2-methyl-1H-benzo[d]imidazol-1-yl)-1-(2-(5-(2-methoxyquinolin-3-yl)-1H-imidazol-2-yl)-4-(oxetan-3-ylmethyl)piperazin-1-yl)ethan-1-one]	< 100	
COc1ccc2nc(C)n(CC(=O)N3CCN(Cc4cnccn4)C[C@H]3c3ncc(-c4cc5ccccc5nc4OC)[nH]3)c2c1 [(S)-2-(6-methoxy-2-methyl-1H-benzo[d]imidazol-1-yl)-1-(2-(5-(2-methoxyquinolin-3-yl)-1H-imidazol-2-yl)-4-(pyrazin-2-ylmethyl)piperazin-1-yl)ethan-1-one]	< 100	
COc1ccc2nc(C)n(CC(=O)N3CCN(Cc4nccs4)C[C@H]3c3ncc(-c4cc5ccccc5nc4OC)[nH]3)c2c1 [(S)-2-(6-methoxy-2-methyl-1H-benzo[d]imidazol-1-yl)-1-(2-(5-(2-methoxyquinolin-3-yl)-1H-imidazol-2-yl)-4-(thiazol-2-ylmethyl)piperazin-1-yl)ethan-1-one]	< 100	
COc1nc2ccccc2cc1-c1cnc(C2COCCN2C(=O)OCc2ccccc2)[nH]1 (centres unmarked) [benzyl 3-(5-(2-methoxyquinolin-3-yl)-1H-imidazol-2-yl)morpholine-4-carboxylate]	1010 to 5000	
CCC(=O)CCCN1CCN(C(=O)Oc2ccccc2)C(c2ncc(-c3ccc4ccccc4c3)[nH]2)C1 (centres unmarked) [phenyl 2-(5-(naphthalen-2-yl)-1H-imidazol-2-yl)-4-(4-oxohexyl)piperazine-1-carboxylate]		1010 to 5000
